Measured values published in PMC11459956, “Onametostat, a PfPRMT5 inhibitor, exhibits antimalarial activity to Plasmodium falciparum” (Antimicrobial Agents and Chemotherapy, 2024).

Molecular target: T1, PfPRMT5 (Plasmodium falciparum, UniProt Q8ID96)
T1 construct: gene PF3D7_1361000; protein A part cut by TEV, protein C tag kept; associated parasite proteins may co-purify
T1 sequence (Q8ID96 1-724): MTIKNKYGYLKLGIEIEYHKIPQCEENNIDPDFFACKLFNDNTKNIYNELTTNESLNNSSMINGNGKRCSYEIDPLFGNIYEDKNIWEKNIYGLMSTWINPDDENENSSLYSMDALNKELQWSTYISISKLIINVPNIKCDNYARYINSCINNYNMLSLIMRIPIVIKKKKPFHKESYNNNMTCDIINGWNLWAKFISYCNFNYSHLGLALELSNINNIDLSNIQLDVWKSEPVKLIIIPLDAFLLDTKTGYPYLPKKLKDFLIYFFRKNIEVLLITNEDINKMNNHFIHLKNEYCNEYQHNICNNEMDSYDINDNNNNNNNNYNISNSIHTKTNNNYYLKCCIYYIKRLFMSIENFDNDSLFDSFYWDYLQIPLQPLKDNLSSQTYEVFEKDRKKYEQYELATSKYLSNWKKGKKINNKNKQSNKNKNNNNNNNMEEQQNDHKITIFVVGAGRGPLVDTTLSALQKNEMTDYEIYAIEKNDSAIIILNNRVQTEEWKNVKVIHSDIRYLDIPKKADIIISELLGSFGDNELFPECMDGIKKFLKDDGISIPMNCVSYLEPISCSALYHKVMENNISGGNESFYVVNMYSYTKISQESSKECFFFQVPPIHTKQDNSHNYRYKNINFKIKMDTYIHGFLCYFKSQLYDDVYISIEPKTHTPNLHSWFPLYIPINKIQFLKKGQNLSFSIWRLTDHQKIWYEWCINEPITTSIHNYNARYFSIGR
Assay: MTase-Glo luminescence methyltransferase assay
Format: biochemical
Conditions: 30 min pre-incubation at 37 °C, 115 µM PfPRMT5 as printed, 10 µM SAM, 0.1 µM human recombinant mononucleosomes, pH 8.0, 60 min

Nc1nc2cc(CC[C@H]3C[C@@H](n4ccc5c(N)ncnc54)[C@H](O)[C@@H]3O)ccc2cc1Br [onametostat]
% reduction of activity at 1:1 molar ratio PfPRMT5:onametostat: ~ 48%
